The record followed here is BindingDB's records for patent US20240083857 (Bayer Pharma Aktiengesellschaft, 2024).

What is called IC50 is the concentration at which inhibition is half-maximal.

Structures are written as SMILES.

Sequence of Epidermal growth factor receptor (P00533 whole entry): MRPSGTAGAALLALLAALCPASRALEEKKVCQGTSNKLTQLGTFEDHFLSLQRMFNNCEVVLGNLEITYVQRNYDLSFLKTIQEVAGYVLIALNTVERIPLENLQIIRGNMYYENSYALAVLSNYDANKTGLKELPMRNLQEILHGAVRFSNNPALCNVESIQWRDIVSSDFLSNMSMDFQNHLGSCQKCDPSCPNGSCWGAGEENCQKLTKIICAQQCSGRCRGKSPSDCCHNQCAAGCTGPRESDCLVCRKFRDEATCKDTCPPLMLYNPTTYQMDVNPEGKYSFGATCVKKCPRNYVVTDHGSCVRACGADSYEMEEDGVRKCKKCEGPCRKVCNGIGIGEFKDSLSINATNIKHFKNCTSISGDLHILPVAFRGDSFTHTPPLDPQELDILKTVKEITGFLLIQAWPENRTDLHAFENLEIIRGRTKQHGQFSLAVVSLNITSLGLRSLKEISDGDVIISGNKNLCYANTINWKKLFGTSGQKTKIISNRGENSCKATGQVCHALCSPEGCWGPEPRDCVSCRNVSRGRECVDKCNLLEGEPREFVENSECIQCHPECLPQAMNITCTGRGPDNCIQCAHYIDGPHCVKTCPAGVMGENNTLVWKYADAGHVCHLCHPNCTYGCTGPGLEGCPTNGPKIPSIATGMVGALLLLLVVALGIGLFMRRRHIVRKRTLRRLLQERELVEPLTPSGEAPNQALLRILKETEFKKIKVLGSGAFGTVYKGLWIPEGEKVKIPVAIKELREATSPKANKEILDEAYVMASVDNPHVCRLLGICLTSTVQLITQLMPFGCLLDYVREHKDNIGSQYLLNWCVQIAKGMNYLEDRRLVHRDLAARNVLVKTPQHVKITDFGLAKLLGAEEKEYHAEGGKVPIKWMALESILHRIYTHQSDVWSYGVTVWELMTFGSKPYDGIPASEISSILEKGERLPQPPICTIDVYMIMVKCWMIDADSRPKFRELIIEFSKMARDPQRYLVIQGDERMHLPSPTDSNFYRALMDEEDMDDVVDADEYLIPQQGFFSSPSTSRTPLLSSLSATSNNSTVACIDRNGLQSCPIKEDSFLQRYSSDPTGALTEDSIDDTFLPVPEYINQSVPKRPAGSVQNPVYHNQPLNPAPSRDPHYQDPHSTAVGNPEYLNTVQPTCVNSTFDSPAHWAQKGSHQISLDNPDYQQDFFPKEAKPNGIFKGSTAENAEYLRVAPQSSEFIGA

The target of the assay is Epidermal growth factor receptor (Homo sapiens, UniProt P00533). The assay is described as follows: EGFR Kinase Assay. Here is the method:
For the assay 50 nL of a 100 fold concentrated solution of the test compound in DMSO was pipetted into a black low volume 384 well microtiter plate (Greiner Bio-One, Frickenhausen, Germany), 2 μL of a solution of EGFR in aqueous assay buffer [50 mM Hepes/HCl pH 7.0, 1 mM MgCl2, 5 mM MnCl2, 0.5 mM activated sodium ortho-vanadate, 0.005% (v/v) Tween-20]were added and the mixture was incubated for 15 min at 22° C. to allow pre-binding of the test compounds to the enzyme before the start of the kinase reaction. […] The concentration of EGFR was adjusted depending of the activity of the enzyme lot and was chosen appropriate to have the assay in the linear range, typical concentration were about 3 U/ml. The reaction was stopped by the addition of 5 μl of a solution of HTRF detection reagents (0.1 μM streptavidine-XL665 [Cis Biointernational] and 1 nM PT66-Tb-Cryptate, an terbium-cryptate labelled anti-phospho-tyrosine antibody from Cis Biointernational [instead of the PT66-Tb-cryptate PT66-Eu-Chelate from Perkin Elmer can also be used]) in an aqueous EDTA-solution (80 mM EDTA, 0.2% (w/v) bovine serum albumin in 50 mM HEPES pH 7.5).The resulting mixture was incubated 1 h at 22° C. to allow the binding of the biotinylated phosphorylated peptide to the streptavidine-XL665 and the PT66-Eu-Chelate. Subsequently the amount of phosphorylated substrate was evaluated by measurement of the resonance energy transfer from the PT66-Tb-Cryptate to the streptavidine-XL665.
In turn, `Cc1nc(N[C@H](C)c2ccccc2)c2cc(Br)ccc2n1` [US20240083857, Example 29] displayed an IC50 above 20 µM. In the case of `Cc1nc(N[C@H](C)c2ccc(F)cc2)c2cc(Br)ccc2n1` [US20240083857, Example 31] it was above 20 µM; in that of `COc1cc2nc(C)nc(N[C@H](C)c3cc4cccc(OC)c4o3)c2cc1OC` [US20240083857, Example 33], above 20 µM.

Take `COc1cc2nc(C)nc(N[C@H](C)c3ccc(C#N)cc3)c2cc1OC` [US20240083857, Example 189]: the IC50 is above 20 µM.

Compound `COc1cc2nc(C)nc(NC(C)c3ccc(-c4ccccc4CNCC(N)=O)s3)c2cc1OC` (stereo unspecified) [US20240083857, Example 279] came in with an IC50 above 20 µM. In turn, `COc1cc2nc(C)nc(NC(C)c3ccc(-c4ccccc4CNCC(=O)N(C)C)s3)c2cc1OC` (stereo unspecified) [US20240083857, Example 280] came in with an IC50 above 20 µM. As to `CNC(=O)CNCc1ccccc1-c1ccc(C(C)Nc2nc(C)nc3cc(OC)c(OC)cc23)s1` (stereo unspecified) [US20240083857, Example 282], the IC50 is above 20 µM. The value for `COCCNC(=O)CNCc1ccccc1-c1ccc(C(C)Nc2nc(C)nc3cc(OC)c(OC)cc23)s1` (stereo unspecified) [US20240083857, Example 283] was above 20 µM; that for `COc1cc2nc(C)nc(NC(C)c3ccc(-c4ccccc4CNCC(=O)NCc4ccccc4)s3)c2cc1OC` (stereo unspecified) [US20240083857, Example 284] was above 20 µM. In the case of `COc1cc2nc(C)nc(NC(C)c3ccc(-c4ccccc4CNCC(=O)Nc4ccccc4)s3)c2cc1OC` (stereo unspecified) [US20240083857, Example 289] it was above 20 µM. The value for `Cc1nc(NC(C)c2ccc(-c3ccccc3CN(C)C)s2)c2cc(N3CCCC3)ccc2n1` (stereo unspecified) [US20240083857, Example 415] was above 20 µM.
